Results on one compound are retold here after patent US12433925B2, “Composition for photodynamic reaction containing extract of Ligularia fischeri as an effective ingredient, antimicrobial, antifungal and sterilization composition including the same, and sterilization method using the composition for photodynamic reaction” (KOREA INSTITUTE OF SCIENCE AND TECHNOLOGY, priority 2020, dated 2025).

Molecules are shown by their SMILES.

Experiment [1] concerns Staphylococcus aureus KCTC 3881. Description: Mouse splinted excisional wound model, wound size by caliper. The format is in vivo, BALB/c mouse. Particulars: no red light. As to the method:
(§1) A 7-week-old male BALB/c mouse (BALB-cAnNCr1jOri, Orientbio, Seongnam, South Korea) was housed for a week in a sterile animal room (SPF, Specific pathogen free) with a controlled air temperature of 22±2° C., a humidity of 50±10%, and the cycle of 12 hours of light and 12 hours of dark. The mice were anesthetized through an avertin intraperitoneal injection, a 5 mm wound was made therein using a biopsy patch, and a central portion of silicone drilled to an outside diameter of 15 mm and an inside diameter of 5 mm was stuck to fit the wound. Then, in the case of the experimental group, 10 μL of a physiological buffer solution (PBS) containing 10^9 CFU/mL of Staphylococcus aureus KCTC 3881 (S.A. bacterium) was inoculated into the wound site, which was then clogged with Tegaderm, and the back of the mice was wrapped with a compression bandage so that the wound site was not in contact with the outside.
Two days after the infection with Staphylococcus aureus, in the case of the group treated with Ligularia fischeri ethanol according to Preparation Example 1(1), the wound was treated with 10 μL of a Ligularia fischeri ethanol extract (20 μg/mL), and in the case of the red light treated group, the wound was treated with red light LED (wavelength: 660 nm, 120 W/m^2) for 15 minutes. In addition, in the case of the Ligularia fischeri ethanol extract according to Preparation Example 1(1) and the red light-treated group, 10 μL of the Ligularia fischeri ethanol extract (20 μg/mL) was treated on the wound for 30 minutes and then red light (120 W/m^2) was treated for 15 minutes. […]
The wound was treated in the same manner as above, even 4, 6, and 8 days after infection with Staphylococcus aureus, and the image of the wound site was obtained on Day 2, 4, 6, and 8 after infection with Staphylococcus aureus. The width and height of the wound site were measured using a caliper and the product obtained by multiplying the width with the height was used to calculate the wound size in mm^2. […]

The test system is the same in experiment [2]. Description: Mouse splinted excisional wound model, wound closure by H&E histology (distance between epidermis tips). It counts as in vivo, BALB/c mouse. Particulars: no red light. As to the method:
as §1
Two days after the infection with Staphylococcus aureus, in the case of the group treated with Ligularia fischeri ethanol according to Preparation Example 1(1), the wound was treated with 10 μL of a Ligularia fischeri ethanol extract (20 μg/mL), and in the case of the red light treated group, the wound was treated with red light LED (wavelength: 660 nm, 120 W/m^2) for 15 minutes. […]
A wound size measurement is a measurement of apparently appearing wound scab and requires the task of histologically confirming whether the wound has been closed by an epidermis actually newly created inside the scab. To this end, the distance between the wound epidermis was measured. […]
Example 1(1)+red light), and the ampicillin-treated group (S.A.bacteria+Ampicillin) on Day 8 after the wound is infected with Staphylococcus aureus (S.A.bacteria). […] At this time, statistical significance between Control (PBS) and S. A. bacteria-treated group was expressed as ^##p<0.001. Statistical significance with S. A. bacteria-treated group-treated group was expressed as *p<0.05 or […]. […]

As for `CC1(C)S[C@@H]2[C@H](NC(=O)[C@H](N)c3ccccc3)C(=O)N2[C@H]1C(=O)O` [ampicillin, Ampicillin], the “wound size compared to the group treated with S.A. bacteria” value in experiment [1] (Day 8, infected wound) was “no significant difference in wound size”. In experiment [1] (Day 8, wound infected with S.A. bacteria, topical 10 μL), the “wound size, % of the initial wound size” value stood at 53.7%. Besides, the “change in wound size, uninfected (PBS) wound” value in experiment [1] (PBS (no S.A. infection)) was “the change in wound size did not occur over time”. In addition, the “wound closure (epidermis formation, H&E)” value in experiment [2] (Day 8, PBS (uninfected) wound) is “completely closed”. Moreover, in experiment [2] (Day 8, infected wound), the “distance between epithelial tips (wound maintained)” value was 16.6% and the “histological wound size compared to the S.A. bacteria-treated group” value was “reduced”.
